How the values were obtained:
[1] = molecular target: T1, Glyceraldehyde-3-phosphate dehydrogenase (Homo sapiens, UniProt P04406); assay: Binding affinity to human recombinant GAPDH assessed as equilibrium binding constant at 310 K incubated for 30 mins by fluorescence quenching assay
Target sequence in this assay (P04406 2-335 limits assumed): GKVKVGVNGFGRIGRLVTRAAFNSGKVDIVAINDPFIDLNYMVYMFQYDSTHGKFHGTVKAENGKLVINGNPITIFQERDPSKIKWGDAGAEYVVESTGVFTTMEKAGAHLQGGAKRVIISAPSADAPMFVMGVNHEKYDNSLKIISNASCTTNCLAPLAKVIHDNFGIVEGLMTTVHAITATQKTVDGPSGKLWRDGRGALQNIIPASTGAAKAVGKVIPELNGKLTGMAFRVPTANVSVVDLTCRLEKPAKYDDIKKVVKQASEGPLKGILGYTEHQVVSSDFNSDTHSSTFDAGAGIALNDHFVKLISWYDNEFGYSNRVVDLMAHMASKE

[2] = molecular target: T1, Glyceraldehyde-3-phosphate dehydrogenase; assay: Inhibition of human recombinant GADPH incubated for 30 mins by absorbance based assay
Target sequence in this assay (P04406 whole entry): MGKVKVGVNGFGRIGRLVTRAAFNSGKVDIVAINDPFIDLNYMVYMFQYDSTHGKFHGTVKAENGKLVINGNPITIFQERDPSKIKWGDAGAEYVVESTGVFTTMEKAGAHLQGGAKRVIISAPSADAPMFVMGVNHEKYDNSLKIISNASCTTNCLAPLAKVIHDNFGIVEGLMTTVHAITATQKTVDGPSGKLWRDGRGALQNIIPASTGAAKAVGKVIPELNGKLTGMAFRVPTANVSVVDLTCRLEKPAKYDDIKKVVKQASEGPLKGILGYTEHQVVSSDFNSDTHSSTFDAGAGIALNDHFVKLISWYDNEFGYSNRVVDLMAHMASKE

[3] = molecular target: T1, Glyceraldehyde-3-phosphate dehydrogenase; assay: Binding affinity to human recombinant GAPDH assessed as Stem-Volmer quenching constant at 298 K incubated for 30 mins by fluorescence quenching assay
Target sequence in this assay (P04406 2-335 limits assumed): as the sequence (P04406 2-335 limits assumed) above

[4] = molecular target: T1, Glyceraldehyde-3-phosphate dehydrogenase; assay: Binding affinity to human recombinant GAPDH assessed as Stem-Volmer quenching constant at 310 K incubated for 30 mins by fluorescence quenching assay
Target sequence in this assay (P04406 2-335 limits assumed): as above

[5] = molecular target: T1, Glyceraldehyde-3-phosphate dehydrogenase; assay: Binding affinity to human recombinant GAPDH assessed as equilibrium binding constant at 298 K incubated for 30 mins by fluorescence quenching assay
Target sequence in this assay (P04406 2-335 limits assumed): as above

[6] = molecular target: T1, Glyceraldehyde-3-phosphate dehydrogenase; assay: Binding affinity to human recombinant GAPDH assessed as change in enthalpy at 298 K incubated for 30 mins by fluorescence quenching assay
Target sequence in this assay (P04406 2-335 limits assumed): as above

[7] = molecular target: T1, Glyceraldehyde-3-phosphate dehydrogenase; assay: Binding affinity to human recombinant GAPDH assessed as change in gibbs free energy at 298 K incubated for 30 mins by fluorescence quenching assay
Target sequence in this assay (P04406 2-335 limits assumed): as above

[8] = molecular target: T1, Glyceraldehyde-3-phosphate dehydrogenase; assay: Binding affinity to human recombinant GAPDH incubated for 30 mins by fluorescence quenching assay; conditions: dose <= 50.0 µM
[9] = molecular target: T1, Glyceraldehyde-3-phosphate dehydrogenase; assay: Binding affinity to human recombinant GAPDH assessed as change in gibbs free energy at 310 K incubated for 30 mins by fluorescence quenching assay
[10] = molecular target: T1, Glyceraldehyde-3-phosphate dehydrogenase; assay: Binding affinity to human recombinant GAPDH assessed as change in entropy at 298 K incubated for 30 mins by fluorescence quenching assay

Row | Compound | Kb [1] | IC50 [2] | KSV [3] | KSV [4] | Kb [5] | deltaH [6] | deltaG [7] | Activity [8] | deltaG [9] | deltaS [10]
1 | O=C(O)[C@H]1O[C@@H](Oc2cc3oc(-c4ccccc4)cc(=O)c3c(O)c2O)[C@H](O)[C@@H](O)[C@@H]1O [BAICALIN] | 634 M⁻¹ | 40.9 µM | 27.3 µM⁻¹ | 17.4 µM⁻¹ | 2270 M⁻¹ | -19.5 kcal/mol | -4.58 kcal/mol | Dose-Dependent Effect | -3.97 kcal/mol | -210 J/mol/K
2 | O=c1cc(-c2ccccc2)oc2cc(O)c(O)c(O)c12 [BAICALEIN] | 341 M⁻¹ | 43.9 µM | 26.7 µM⁻¹ | 26.3 µM⁻¹ | 427 M⁻¹ | -3.42 kcal/mol | -3.59 kcal/mol | Dose-Dependent Effect | -3.59 kcal/mol | 2.38 J/mol/K

— ChEMBL document CHEMBL5325453, “Isolation and identification of the new baicalin target protein to develop flavonoid structure-based therapeutic agents” (Bioorg Med Chem, 2023)
